The source of these data is patent US8466089B2, “Pyrazole compounds, process for their production and herbicides containing them” (Ishihara Sangyo Kaisha, Ltd., priority 2008, dated 2013).

Each structure is given as a SMILES string.

What all share (type): in vivo
Experiment [1] concerns barnyardgrass (Echinochloa crus-galli L.). Description: Test Example 1, foliar treatment in upland pots. The following applies: 20th to 22nd day after application, visual, read-out: Growth inhibition rate (%) Barnyardgrass. An excerpt:
(§1) Upland field soil was put into a 1/170,000 hectare pot, and seeds of various plants were sown. When the respective plants reached predetermined leaf stage ((1) barnyardgrass (Echinochloa crus-galli L.): 1.2 to 3.0 leaf stage, (2) crabgrass (Digitaria sanguinalis L.): 1.0 to 3.0 leaf stage, (3) green foxtail (Setaria viridis L.): 1.5 to 3.0 leaf stage, (4) redroot pigweed (Amaranthus retroflexus L.): cotyledon stage to 1.5 leaf stage, (5) prickly sida (Sida spinosa L.): cotyledon stage to 2.0 leaf stage, (6) velvetleaf (Abutilon theophrasti MEDIC.): cotyledon stage to 1.3 leaf stage, (7) rice (Oryza sativa L.): 1.2 to 2.5 leaf stage, (8) corn (Zea mays L.): 2.0 to 3.3 leaf stage, (9) soybean (Glycine max Merr.): primary leaf stage to 0.3 leaf stage) and wheat (Triticum spp.): 2.0 to 3.0 leaf stage, wettable powders or emulsifiable concentrates of the compounds of the present invention prepared in accordance with a conventional preparation method, were weighed so that the active ingredients became the prescribed amounts, and diluted with water in an amount corresponding to 500 liter per 1 hectare (containing 0.1 vol % of an agricultural spreader (“KUSARINOH”, manufactured by NIHON NOHYAKU CO., LTD.)). The spray solutions thus prepared were applied for foliar treatment by a small sprayer.
(§2) On the 20th to 22nd day after application, the state of growth of the respective plants was visually observed, and the herbicidal effect was evaluated by a growth inhibition rate (%) of 0 (equivalent to the non-treated area) to 100% (complete kill).

The subject of experiment [2] is corn (Zea mays L.). In words: Test Example 1, foliar treatment in upland pots. The following applies: 20th to 22nd day after application, visual, read-out: Growth inhibition rate (%) Corn.
Description: as §1, §2

Experiment [3] has as its system crabgrass (Digitaria sanguinalis L.). In words: Test Example 1, foliar treatment in upland pots. The following applies: 20th to 22nd day after application, visual, read-out: Growth inhibition rate (%) Crabgrass.
Description: as §1, §2

Experiment [4] relates to green foxtail (Setaria viridis L.). Description: Test Example 1, foliar treatment in upland pots. The following applies: 20th to 22nd day after application, visual, read-out: Growth inhibition rate (%) Green foxtail.
Description: as §1, §2

Experiment [5] relates to redroot pigweed (Amaranthus retroflexus L.). In words: Test Example 1, foliar treatment in upland pots. The following applies: 20th to 22nd day after application, visual, read-out: Growth inhibition rate (%) Redroot pigweed.
Description: as §1, §2

In experiment [6] the test system is rice (Oryza sativa L.). In words: Test Example 1, foliar treatment in upland pots. The following applies: 20th to 22nd day after application, visual, read-out: Growth inhibition rate (%) Rice.
Description: as §1, §2

For experiment [7], the system named is velvetleaf (Abutilon theophrasti MEDIC.). Description: Test Example 1, foliar treatment in upland pots. The following applies: 20th to 22nd day after application, visual, read-out: Growth inhibition rate (%) Velvetleaf.
Description: as §1, §2

The test system of experiment [8] is barnyardgrass (Echinochloa crus-galli L.). In words: Test Example 2, soil application on the day after sowing. The following applies: 21st to 22nd day after application, visual, read-out: Growth inhibition rate (%) Barnyardgrass. An excerpt: (§3) Upland field soil was put into a 1/170,000 hectare pot, and seeds of various plants (barnyardgrass (Echinochloa crus-galli L.), crabgrass (Digitaria sanquinalis L.), green foxtail (Setaria viridis L.), redroot pigweed (Amaranthus retroflexus L.), prickly sida (Sida spinosa L.), velvetleaf (Abutilon theophrasti MEDIC.), rice (Oryza sativa L.), corn (Zea mays L.), soybean (Glycine max Merr.)) and wheat (Triticum spp.) were sown. On the day after sowing, wettable powders or emulsifiable concentrates of the compounds of the present invention prepared in accordance with a conventional preparation method, were weighed so that the active ingredients became the prescribed amounts, and diluted with water in an amount corresponding to 500 liter per 1 hectare, followed by soil application with a small sprayer.
(§4) On the 21st to 22nd day after the application, the state of growth of the respective plants was visually observed, and the herbicidal effect was evaluated by a growth inhibition rate (%) of from 0 (equivalent to the non-treated area) to 100% (complete kill).

In experiment [9] the test system is corn (Zea mays L.). Described as above. The following applies: 21st to 22nd day after application, visual, read-out: Growth inhibition rate (%) Corn.
Description: as §3, §4

The test system of experiment [10] is crabgrass (Digitaria sanquinalis L.). The experiment is described as above. The following applies: 21st to 22nd day after application, visual, read-out: Growth inhibition rate (%) Crabgrass.
Description: as §3, §4

Experiment [11] relates to green foxtail (Setaria viridis L.). Described as above. The following applies: 21st to 22nd day after application, visual, read-out: Growth inhibition rate (%) Green foxtail.
Description: as §3, §4

For experiment [12], the system named is prickly sida (Sida spinosa L.). The experiment is described as above. The following applies: 21st to 22nd day after application, visual, read-out: Growth inhibition rate (%) Prickly sida.
Description: as §3, §4

The subject of experiment [13] is redroot pigweed (Amaranthus retroflexus L.). The description is as above. The following applies: 21st to 22nd day after application, visual, read-out: Growth inhibition rate (%) Redroot pigweed.
Description: as §3, §4

In experiment [14] the test system is rice (Oryza sativa L.). The experiment is described as above. The following applies: 21st to 22nd day after application, visual, read-out: Growth inhibition rate (%) Rice.
Description: as §3, §4

The test system of experiment [15] is soybean (Glycine max Merr.). The description is as above. The following applies: 21st to 22nd day after application, visual, read-out: Growth inhibition rate (%) Soybean.
Description: as §3, §4

In experiment [16] the test system is velvetleaf (Abutilon theophrasti MEDIC.). The description is as above. The following applies: 21st to 22nd day after application, visual, read-out: Growth inhibition rate (%) Velvetleaf.
Description: as §3, §4

The test system of a further experiment is wheat (Triticum spp.). Described as above. The following applies: 21st to 22nd day after application, visual, read-out: Growth inhibition rate (%) Wheat.
Description: as §3, §4

Turning to `COCCOc1c(S(C)(=O)=O)ccc(C(=O)c2cnn(C(C)C)c2O)c1C` [Compound No. 8-1, (5-Hydroxy-1-isopropyl-1H-pyrazol-4-yl)(3-(2-methoxyethoxy)-2-methyl-4-(methylsulfonyl)phenyl)ketone], the inhibition at 7 g/ha in [1] was found to be 60%; with corn (Zea mays L.) [2] it was 0%; in experiment [3], 95%; in experiment [4], 90%; in experiment [5], 90%; in the experiment on rice (Oryza sativa L.) [6], 10%. For the same compound, the inhibition at 7 g/ha in experiment [7] was found to be 80%. The inhibition at 250 g/ha in experiment [8] amounted to 100%; with corn (Zea mays L.) [9], 0%; in experiment [10] it was 100%; in [11] it was 100%; in [12], 40%; in experiment [13], 100%. In addition, the inhibition at 250 g/ha with rice (Oryza sativa L.) [14] was determined as 80%; in [15], 0%; in experiment [16], 100%; in the experiment on wheat (Triticum spp.), 0%.
Regarding `CCCn1ncc(C(=O)c2ccc(S(C)(=O)=O)c(OCCOC)c2C)c1O` [Compound No. 7-1, (5-Hydroxy-1-n-propyl-1H-pyrazol-4-yl)(3-(2-methoxyethoxy)-2-methyl-4-(methylsulfonyl)phenyl)ketone], the inhibition at 7 g/ha in experiment [1] was 60%; with corn (Zea mays L.) [2], 0%; in experiment [3], 70%; in experiment [4] it was 70%; in experiment [5] it was 70%; in the experiment on rice (Oryza sativa L.) [6], 10%. For the same compound, in experiment [7], the inhibition at 7 g/ha was 75%. Moreover, the inhibition at 250 g/ha was 98% in [8]; 0% with corn (Zea mays L.) [9]; 100% in experiment [10]; 90% in experiment [11]; 80% in experiment [12]; 100% in experiment [13]. Moreover, the inhibition at 250 g/ha in the experiment with rice (Oryza sativa L.) [14] is 98%; in experiment [15], 20%; in experiment [16], 95%; with wheat (Triticum spp.), 40%.
Consider `CCOC(=O)OC(C)Oc1c(C(=O)c2ccc(S(C)(=O)=O)c(OCCOC(C)C)c2C)cnn1C` (stereo not drawn) [Compound No. 1-5, Ethyl 1-(4-(3-(2-isopropoxyethoxy)-2-methyl-4-(methylsulfonyl)benzoyl)-1-methyl-1H-pyrazol-5-yloxy)ethyl carbonate], for which the inhibition at 7 g/ha in experiment [1] amounted to 95%; with corn (Zea mays L.) [2], 10%; in [3], 90%; in experiment [4], 80%; in [5] it was 80%; in the experiment with rice (Oryza sativa L.) [6], 20%. Moreover, in experiment [7], the inhibition at 7 g/ha is 80%. For the same compound, the inhibition at 250 g/ha in [8] turned out to be 100%; in the experiment on corn (Zea mays L.) [9], 10%; in experiment [10], 95%; in experiment [11], 100%; in experiment [12] it was 90%; in experiment [13] it was 100%. The inhibition at 250 g/ha came out at 80% in the experiment with rice (Oryza sativa L.) [14], 10% in experiment [15], 100% in [16] and 0% in the experiment on wheat (Triticum spp.).
On to `COCCOc1c(S(C)(=O)=O)ccc(C(=O)c2c(C)nn(C)c2O)c1C` [Compound No. 5-2, (5-Hydroxy-1,3-dimethyl-1H-pyrazol-4-yl)(3-(2-methoxyethoxy)-2-methyl-4-(methylsulfonyl)phenyl)ketone], for which the inhibition at 7 g/ha was determined as 90% in [1]; 0% with corn (Zea mays L.) [2]; 90% in experiment [3]; 100% in [4]; 90% in experiment [5]; 50% with rice (Oryza sativa L.) [6]. Also, the inhibition at 7 g/ha in experiment [7] was determined as 70%. The inhibition at 250 g/ha is 10% in experiment [8]; 0% with corn (Zea mays L.) [9]; 100% in [10]; 60% in experiment [11]; 0% in [12]; 90% in experiment [13]. Further, the inhibition at 250 g/ha in the experiment on rice (Oryza sativa L.) [14] was determined as 10%; in experiment [15], 20%; in [16], 70%; in the experiment on wheat (Triticum spp.), 0%.
As to `CCc1nn(C)c(O)c1C(=O)c1ccc(S(C)(=O)=O)c(OCCOC)c1C` [Compound No. 5-3, (5-Hydroxy-1-methyl-3-ethyl-1H-pyrazol-4-yl)(3-(2-methoxyethoxy)-2-methyl-4-(methylsulfonyl)phenyl)ketone], the inhibition at 7 g/ha in experiment [1] worked out at 90%; in the experiment on corn (Zea mays L.) [2], 0%; in [3], 90%; in experiment [4], 90%; in experiment [5], 95%; with rice (Oryza sativa L.) [6], 50%. In experiment [7], the inhibition at 7 g/ha was determined as 80%. For the same compound, the inhibition at 250 g/ha in experiment [8] was 50%; in the experiment with corn (Zea mays L.) [9], 20%; in experiment [10], 95%; in [11], 60%; in experiment [12], 20%; in experiment [13], 100%. The inhibition at 250 g/ha in the experiment with rice (Oryza sativa L.) [14] turned out to be 20%; in experiment [15], 0%; in [16] it was 30%; in the experiment on wheat (Triticum spp.), 0%.
As for `CCCn1ncc(C(=O)c2ccc(S(C)(=O)=O)c(OCCOC)c2C)c1OC(C)OC(=O)OCC` (stereo not drawn) [Compound No. 3-1, Ethyl 1-(1-n-propyl-4-(3-(2-methoxyethoxy)-2-methyl-4-(methylsulfonyl)benzoyl)-1H-pyrazol-5-yloxy)ethyl carbonate], the inhibition at 7 g/ha in [1] is 70%; with corn (Zea mays L.) [2], 0%; in [3], 70%; in experiment [4], 30%; in experiment [5], 80%; in the experiment on rice (Oryza sativa L.) [6], 0%. In addition, in [7], the inhibition at 7 g/ha turned out to be 60%. Besides, the inhibition at 250 g/ha in [8] was found to be 60%; in the experiment on corn (Zea mays L.) [9], 0%; in experiment [10], 80%; in experiment [11], 60%; in [12], 80%; in experiment [13], 40%. Further, the inhibition at 250 g/ha in the experiment with rice (Oryza sativa L.) [14] amounted to 20%; in experiment [15], 0%; in experiment [16], 80%; with wheat (Triticum spp.) it was 10%.

Usually inhibition stands for how much of the control response was suppressed.
